Read-outs that look alike come from different tables or passages of the source.
Experiments:
[1] = target: T1, human topo IIβ (Homo sapiens, UniProt Q02880); test: kDNA decatenation assay catalysed by human topo IIβ; type: biochemical; details: for % Decatenated Assay 1 / % Decatenated Assay 2: % of decatenated kDNA; for % Decatenated Average: average of two assays
T1 construct: purchased Inspiralis (Norwich, UK)
Experimental: One U of human topo II (α or β) was incubated with 200 ng kDNA in a 30 µL reaction at 37°C for 30 minutes under the following conditions: 50 mM Tris HCl (pH 7.5), 125 mM NaCl, 10 mM MgCl2, 5 mM DTT, 0.5 mM EDTA, 0.1 mg/ml bovine serum albumin (BSA) and 1 mM ATP. Compounds 1 and 9 were serially diluted in DMSO and added to the reaction mixture before the addition of the enzyme. Etoposide was used as a control compound. Each reaction was then stopped by the addition of 30 µL chloroform/iso-amyl alcohol ([…]) and 30 µL Stop Dye (40 % sucrose (w/v), 100 mM Tris.HCl (pH 7.5), 10 mM EDTA, 0.5 µg/mL bromophenol blue), before being loaded on a 1% TAE gel run at 85 V for 90 minutes. Assays were performed at 4 concentrations of ligand: 3.9, 31.5, 125 and 500 µM. The final DMSO concentration in all reactions was 1 % (v/v).
(§1) Bands were visualized by the ethidium bromide staining for 15 minutes and destaining for subsequent 10 minutes. Gels were scanned using the documentation equipment (GeneGenius, Syngene, Cambridge, UK) and inhibition levels were calculated from band data obtained with gel scanning software (GeneTools, Syngene, Cambridge,UK). Experiment was performed in duplicates for all compounds.

[2] = target: T2, human topo IIα (Homo sapiens, UniProt P11388); test: human topo IIα cleavage assay (linear DNA); type: biochemical
T2 construct: purchased Inspiralis (Norwich, UK)
T2 sequence (P11388 whole entry): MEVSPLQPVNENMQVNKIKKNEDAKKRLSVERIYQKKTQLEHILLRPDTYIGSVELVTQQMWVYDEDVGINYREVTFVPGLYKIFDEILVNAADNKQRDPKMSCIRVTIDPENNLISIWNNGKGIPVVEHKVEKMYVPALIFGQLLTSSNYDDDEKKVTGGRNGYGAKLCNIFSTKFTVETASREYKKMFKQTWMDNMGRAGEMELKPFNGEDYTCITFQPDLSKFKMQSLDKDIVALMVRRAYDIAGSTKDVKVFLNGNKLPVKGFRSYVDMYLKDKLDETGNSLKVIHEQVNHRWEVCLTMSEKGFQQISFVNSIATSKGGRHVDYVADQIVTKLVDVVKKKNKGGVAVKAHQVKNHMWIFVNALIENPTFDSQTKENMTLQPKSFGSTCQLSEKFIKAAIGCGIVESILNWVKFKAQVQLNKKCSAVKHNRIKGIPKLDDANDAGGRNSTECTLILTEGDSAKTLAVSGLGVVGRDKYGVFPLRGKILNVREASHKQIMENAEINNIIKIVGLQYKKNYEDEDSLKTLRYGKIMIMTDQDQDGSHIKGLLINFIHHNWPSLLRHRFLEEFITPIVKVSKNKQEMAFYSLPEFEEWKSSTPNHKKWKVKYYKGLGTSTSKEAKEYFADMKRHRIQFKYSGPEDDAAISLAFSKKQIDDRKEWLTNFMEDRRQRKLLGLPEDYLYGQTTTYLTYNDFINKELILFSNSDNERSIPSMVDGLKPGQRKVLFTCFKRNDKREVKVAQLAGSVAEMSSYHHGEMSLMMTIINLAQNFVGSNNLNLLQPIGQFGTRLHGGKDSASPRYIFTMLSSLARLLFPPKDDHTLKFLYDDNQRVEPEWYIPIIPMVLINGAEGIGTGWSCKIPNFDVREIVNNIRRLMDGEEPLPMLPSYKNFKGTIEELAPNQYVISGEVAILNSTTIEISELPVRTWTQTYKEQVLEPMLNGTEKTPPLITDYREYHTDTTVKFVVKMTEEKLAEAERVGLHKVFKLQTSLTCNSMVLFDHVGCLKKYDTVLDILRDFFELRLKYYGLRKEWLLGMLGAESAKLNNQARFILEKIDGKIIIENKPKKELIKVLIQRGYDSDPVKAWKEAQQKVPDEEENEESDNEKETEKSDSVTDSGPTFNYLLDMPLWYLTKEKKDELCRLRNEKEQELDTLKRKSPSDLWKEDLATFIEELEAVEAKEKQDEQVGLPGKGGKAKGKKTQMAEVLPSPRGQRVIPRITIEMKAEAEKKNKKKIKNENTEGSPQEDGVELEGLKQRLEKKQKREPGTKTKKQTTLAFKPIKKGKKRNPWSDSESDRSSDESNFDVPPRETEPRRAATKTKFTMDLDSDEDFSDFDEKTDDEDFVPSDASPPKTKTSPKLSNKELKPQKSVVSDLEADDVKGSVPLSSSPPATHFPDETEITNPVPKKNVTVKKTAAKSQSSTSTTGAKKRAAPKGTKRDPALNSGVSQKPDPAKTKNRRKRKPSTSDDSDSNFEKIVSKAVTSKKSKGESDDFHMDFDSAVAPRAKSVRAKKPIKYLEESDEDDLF
Experimental: To determine if compounds act as topo II poisons, cleavage assay was performed for compounds 1 and 9.
Selected compounds were tested at four concentrations: 3.9, 31.5, 125 and 500 µM. The reaction was then incubated for additional 30 minutes with 0.2 % SDS and 0.5 µg/µL proteinase K. Subsequently the reaction was stopped by adding 30 µL of chloroform/iso-amyl alcohol ([…]) and 30 µL of Stop Dye (40 % sucrose (w/v), 100 mM Tris.HCl (pH 7.5), 10 mM EDTA, 0.5 µg/mL bromophenol blue), before sample being loaded on the 1 % TAE gel run at 80 V for 2 hours.
as §1, with “cleavage” for “inhibition”, “from the” for “from”, “by the” for “with”, “The human topo IIα cleavage assay” for “Experiment”, “collaboration with Inspiralis (Norwich, UK).” for “duplicates for all compounds.”

[3] = test system: MCF-7 cells; test: MTS cytotoxicity assay, MCF-7; type: cell-based, human; details: Homo sapiens, interval in brackets
Source text: (§2) We determined the cytotoxicity of the tested compounds on human breast cancer MCF-7 and human hepatocellular carcinoma HepG2 cancer cell lines using MTS assay. Both selected human cancer cell lines are representative and well-established systems for cell-based evaluation of potential anticancer compounds. Etoposide was again used as a positive control (PC).
(§3) In the first step we performed the initial screening of compounds 1-14 at one concentration. […] Exponentially growing cells were exposed to all compounds for 24 h and the results are represented in Figure 3A.
(§4) In vitro cytotoxicity of investigated compounds was evaluated in two human cancer cell lines: the […] cell lines. The HepG2 cells (ATCC) were cultivated at 37 °C and 5 % CO2 in MEME medium (M2414, Sigma) supplemented with 10 % FBS, 2 mM L-Glutamine, 1 % NEAA, 2.2 g/L NaHCO3, 1 mM sodium pyruvate and 100 IU/mL penicillin/ streptomycin and MCF-7 (ATCC) were cultivated in Eagle's MEM medium (M5650, Sigma), supplemented with 10 % fetal bovine serum, 2 mM glutamine, and 100 IU/mL penicillin/streptomycin. After the exposure to the tested compounds the viability of HepG2 and MCF-7 cells was determined by MTS tetrazolium reduction assay. The cells were seeded onto 96-well microplates (Nunc, TermoFisher Scientific, Waltham, MA, USA) at densities of 8000 cells per well (HepG2) and 7000 cells per well (MCF-7) in […] growth medium and incubated overnight to attach. The next day, the growth medium was replaced by the fresh complete growth medium containing appropriate concentrations of the compounds. […] Finally, the absorbance was measured at wavelength of 490 nm using a Microplate Reader (Synergy MX, BioTek, Winooski, VT, USA). […] Assay was performed at 5 concentrations of each compound; 2, 25, 50, 100 and 200 µM for compounds 1, 7 and 14 and 1, 12.5, 25, 50, 100 µM for compounds 9 and 10. […] Cell viability was determined by comparing the OD (optical density) of the wells containing the cells treated with investigated compounds with those of solvent control cells and presented as % of cell viability ± SD. Experiments were performed three times independently each time in at least three replicates. EC50 values were calculated by non-linear regression analysis using GraphPad Prism 7.0 Software. Statistical significance between treated groups and the control was determined by One-way analysis of variance and Dunnett's Multiple Comparison Test.

[4] = test system: HepG2 cells; test: MTS cytotoxicity assay, HepG2; type: cell-based, human; details: Homo sapiens, interval in brackets
Source text: as §2, §3, §4

[5] = MCF7, read-out: EC50 [µM] MCF-7 (24h), 24h exposure
[6] = MCF7, 72h exposure, read-out: EC50 [µM] MCF-7 (72h)
[7] = HepG2, read-out: EC50 [µM] HepG2 (24h), 24h exposure
[8] = HepG2, 72h exposure, read-out: EC50 [µM] HepG2 (72h)

T1 sequence (Q02880 whole entry): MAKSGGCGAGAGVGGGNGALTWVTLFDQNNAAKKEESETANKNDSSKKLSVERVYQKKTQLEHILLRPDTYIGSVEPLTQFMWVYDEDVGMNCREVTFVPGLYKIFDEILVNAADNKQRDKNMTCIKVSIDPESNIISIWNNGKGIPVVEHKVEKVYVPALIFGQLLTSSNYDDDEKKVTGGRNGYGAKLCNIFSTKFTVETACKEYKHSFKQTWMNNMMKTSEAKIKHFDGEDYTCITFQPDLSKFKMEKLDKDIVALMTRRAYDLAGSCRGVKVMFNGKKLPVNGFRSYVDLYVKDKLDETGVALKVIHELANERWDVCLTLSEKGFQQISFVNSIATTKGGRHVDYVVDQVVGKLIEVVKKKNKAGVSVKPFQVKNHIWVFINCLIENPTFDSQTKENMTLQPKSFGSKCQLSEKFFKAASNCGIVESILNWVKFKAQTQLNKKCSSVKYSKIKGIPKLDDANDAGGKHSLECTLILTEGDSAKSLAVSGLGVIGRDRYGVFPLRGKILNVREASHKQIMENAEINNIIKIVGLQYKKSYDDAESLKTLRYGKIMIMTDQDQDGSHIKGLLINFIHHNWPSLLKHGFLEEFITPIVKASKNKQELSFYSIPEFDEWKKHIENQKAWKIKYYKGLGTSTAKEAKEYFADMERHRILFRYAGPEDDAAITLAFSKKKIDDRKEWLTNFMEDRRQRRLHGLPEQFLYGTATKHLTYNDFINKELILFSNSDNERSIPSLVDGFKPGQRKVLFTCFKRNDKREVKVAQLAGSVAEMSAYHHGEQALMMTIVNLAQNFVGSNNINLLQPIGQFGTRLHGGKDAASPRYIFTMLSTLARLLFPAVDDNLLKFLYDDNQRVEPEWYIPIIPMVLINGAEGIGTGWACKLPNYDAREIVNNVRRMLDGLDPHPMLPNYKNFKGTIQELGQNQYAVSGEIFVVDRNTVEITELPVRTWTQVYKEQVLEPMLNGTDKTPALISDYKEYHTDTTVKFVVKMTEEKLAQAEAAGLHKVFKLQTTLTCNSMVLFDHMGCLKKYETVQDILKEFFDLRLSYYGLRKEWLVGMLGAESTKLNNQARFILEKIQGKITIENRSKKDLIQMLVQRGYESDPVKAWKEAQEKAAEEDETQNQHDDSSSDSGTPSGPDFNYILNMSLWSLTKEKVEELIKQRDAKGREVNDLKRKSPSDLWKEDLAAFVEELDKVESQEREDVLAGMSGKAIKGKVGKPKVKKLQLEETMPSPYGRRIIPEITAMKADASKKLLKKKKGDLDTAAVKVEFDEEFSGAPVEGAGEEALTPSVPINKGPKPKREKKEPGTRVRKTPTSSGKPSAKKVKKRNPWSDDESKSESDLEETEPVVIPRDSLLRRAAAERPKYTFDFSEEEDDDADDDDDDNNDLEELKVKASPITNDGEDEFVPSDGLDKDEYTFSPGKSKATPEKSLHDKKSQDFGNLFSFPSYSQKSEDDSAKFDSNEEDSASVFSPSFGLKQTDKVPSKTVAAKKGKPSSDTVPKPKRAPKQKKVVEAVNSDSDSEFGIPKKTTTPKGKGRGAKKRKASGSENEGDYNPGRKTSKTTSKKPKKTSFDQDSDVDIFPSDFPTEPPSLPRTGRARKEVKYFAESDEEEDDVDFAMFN

| % Decatenated Assay 1 ([1]; 3.9 µM) [%] | % Decatenated Assay 2 ([1]; 3.9 µM) [%] | % Decatenated Assay 1 ([1]; 31.5 µM) [%] | % Decatenated Assay 2 ([1]; 31.5 µM) [%] | % Decatenated Average ([1]; 31.5 µM) [%] | % Decatenated Assay 1 ([1]; 125 µM) [%] | % Decatenated Assay 2 ([1]; 125 µM) [%] | % Decatenated Average ([1]; 125 µM) [%] | % Decatenated Assay 1 ([1]; 500 µM) [%] | % Decatenated Assay 2 ([1]; 500 µM) [%] | % Decatenated Average ([1]; 500 µM) [%] | % Linear Average ([2]; 3.9 µM) [%] | % Linear ([2]; 3.9 µM, % Linear) [%] | % Linear ([2]; 3.9 µM, first % Linear column) [%] | % Linear Average ([2]; 31.5 µM) [%] | % Linear ([2]; 31.5 µM, % Linear) [%] | % Linear ([2]; 31.5 µM, first % Linear column) [%] | % Linear Average ([2]; 125 µM) [%] | % Linear ([2]; 125 µM, % Linear) [%] | % Linear ([2]; 125 µM, first % Linear column) [%] | Structure (SMILES) | further results |
| --- | --- | --- | --- | --- | --- | --- | --- | --- | --- | --- | --- | --- | --- | --- | --- | --- | --- | --- | --- | --- | --- |
| 87.0 | 75.6 | 80.1 | 73.3 | 76.7 | 30.5 | 21.7 | 26.1 | 17.5 | 5.3 | 11.4 | 6.26 | 7.03 | 5.49 | 7.26 | 6.75 | 7.77 | 4.72 | 4.60 | 4.84 | CC(=O)Nc1ccc(Nc2nc(-c3sc(NC(C)=O)nc3C)cs2)cc1 [Compound 9, N-(4-((2'-acetamido-4'-methyl-[4,5'-bithiazol]-2-yl)amino)phenyl)acetamide] | % Decatenated Average ([1]; 3.9 µM): 81.3%; inhibition at 125 µM ([1]; 125 µM): 73.9%; inhibition at 500 µM ([1]; 500 µM): 88.6%; % Linear Average ([2]; 500 µM): 2.60%; % Linear ([2]; 500 µM, % Linear): 2.25%; % Linear ([2]; 500 µM, first % Linear column): 2.95%; EC50 [3, 5]: 15 µM; EC50 [3, 6]: 13.8 µM; EC50 [4, 7]: 73.5 µM; EC50 [4, 8]: 23.5 µM |
| 100.0 | 100.0 | 94.0 | 92.8 | 93.4 | 24.6 | 23.1 | 23.9 | 150 | 14.4 | 14.7 | 17.32 | 11.88 | 22.76 | 34.63 | 36.26 | 33.00 | 41.13 | 36.91 | 45.35 | COc1cc([C@@H]2c3cc4c(cc3[C@@H](O[C@@H]3O[C@@H]5CO[C@@H](C)O[C@H]5[C@H](O)[C@H]3O)[C@H]3COC(=O)[C@H]23)OCO4)cc(OC)c1O [Etoposide, etoposide, reference compound] | % Linear Average ([2]; 500 µM): 45.71%; % Linear ([2]; 500 µM, % Linear): 48.40%; % Linear ([2]; 500 µM, first % Linear column): 43.03%; amount of linear DNA (poison activity) ([2]; titration 3.9, 31.5, 125 and 500 µM, result in words): increased amount of linear DNA; EC50 [3, 5]: 320 µM; EC50 [3, 6]: 12.6 µM; EC50 [4, 7]: 196 µM; EC50 [4, 8]: 25.8 µM |
| 87.3 | 95.5 | 78.6 | 79.7 | 79.2 | 0 | 0 | 0 | 0 | 0 | 0 | 6.81 | 5.57 | 8.05 | 7.04 | 7.77 | 6.32 | 2.94 | 2.85 | 3.02 | Cc1nc(N)sc1-c1csc(Nc2ccc(C(F)(F)F)cc2)n1 [Compound 1, 4'-methyl-N2-(4-(trifluoromethyl)phenyl)-[4,5'-bithiazole]-2,2'-diamine] | % Decatenated Average ([1]; 3.9 µM): 91.3%; inhibition at 31.5 µM ([1]; 31.5 µM): 20.8%; % of inhibition of decatenation ([1]; 125 µM): fully inhibited; % of inhibition of decatenation ([1]; 500 µM): fully inhibited; % Linear Average ([2]; 500 µM): 2.72%; % Linear ([2]; 500 µM, % Linear): 2.98%; % Linear ([2]; 500 µM, first % Linear column): 2.45%; EC50 [3, 5]: 65 µM; EC50 [3, 6]: 59.5 µM; EC50 [4, 7]: 72.8 µM; EC50 [4, 8]: 46.8 µM |

Reference: patent publication EP3811940B1, “SUBSTITUTED 4,5'-BITHIAZOLES AS INHIBITORS OF THE HUMAN DNA TOPOISOMERASE II” (Kemijski Institut, priority 2019, dated 2021)
